In patent EP0059645A1, “Method and kit for identification of beta-lactamases” (NATIONAL RESEARCH DEVELOPMENT CORPORATION, priority 1981, dated 1982) one finds RSAI data, which are given here for 7 molecules.

Marks after values point to notes of the source that are not given here.

Common to all, as to assay: Competitive assay with nitrocefin (RSAI)
The target of assay [1] is TEM-2 (Escherichia coli, UniProt P62593, Q37K). It counts as biochemical, E. coli 1725E. An excerpt:
(§1) It is convenient to express the results in terms of a Relative Substrate Affinity Index (RSAI) value.
(§2) RSAI = Concentration of competing substrate which gives 50% inhibition of ring-opening hydrolysis of the chromogenic substrate
(§3) Concentration of chromogenic substrate in the assay A high RSAI value therefore indicates a low affinity of the beta-lactamase for that competing substrate, and therefore predicts resistance of a beta-lactam competing substrate to hydrolysis by the beta-lactamase. Low RSAI values, in contrast, predict sensitivity to hydrolysis by a beta-lactamase.
(§4) Beta-lactam antibiotics which bind to the TEM-2 enzyme compete with nitrocefin in the assay. […] . This concentration of ampicillin is a direct estimate of the relative affinity of the TEM-2 enzyme for ampicillin. […] . The RSAI value was therefore 1.3.

Assay [2] deals with Chromosomal, hyper-induced beta-lactamase enzyme (Escherichia coli, UniProt P00811). The assay is classed as biochemical, E. coli SNU35. Further details: Normally, therefore, the beta-lactamase has to be extracted from the cells for the purpose of the present invention; endogenous in cells; host or cells: E. coli SNU 35 (artificially produced strain).
The target in assay [3] is OXA-3 (Pseudomonas aeruginosa, UniProt Q51429). It counts as biochemical, E. coli R57B. Also noted: Normally, therefore, the beta-lactamase has to be extracted from the cells for the purpose of the present invention; endogenous in cells.
Assay [4] addresses PSE-2 (Pseudomonas aeruginosa, UniProt P14489). It counts as biochemical, Ps.aerug. 1973E. Also noted: Normally, therefore, the beta-lactamase has to be extracted from the cells for the purpose of the present invention; endogenous in cells.
The subject of assay [5] is K10317. The assay is classed as biochemical, K.aerog. 10317.
Excerpt: as §1, §2, §3, §4

Assay [6] concerns K1073. It counts as biochemical, Klebsiella 1073.
Excerpt: as §1, §2, §3, §4

Assay [7] addresses TEM-1 (Escherichia coli, UniProt P62593). It counts as biochemical, E. coli 2136E. Further details: the beta-lactamase has to be extracted from the cells for the purpose of the present invention; made in house; host or cells: E. coli 2136E (plasmid-bearing strain; crude cell extract).
The target of assay [8] is SHV-1 (Escherichia coli, UniProt P0AD63). It counts as biochemical, E. coli 2008E. Further details: the beta-lactamase has to be extracted from the cells for the purpose of the present invention; made in house; host or cells: E. coli 2008E (crude cell extract).
Assay [9] concerns K17. The assay is classed as biochemical, Klebsiella 17.
Excerpt: as §1, §2, §3, §4

Assay [10] relates to HMS-1. The assay is classed as biochemical, E. coli 1946.
Assay [11] deals with T1, Chromosomal, constitutive beta-lactamase enzyme (Enterobacter cloacae, UniProt P05364).
T1 construct: Normally, therefore, the beta-lactamase has to be extracted from the cells for the purpose of the present invention; endogenous in cells
It counts as biochemical, E. cloacae.

The target of assay [12] is PSE-4 (Pseudomonas aeruginosa, UniProt P16897). The assay is classed as biochemical, Ps.aerug. 1559E. Also noted: Normally, therefore, the beta-lactamase has to be extracted from the cells for the purpose of the present invention; endogenous in cells.
Assay [13] deals with OXA-1 (Escherichia coli, UniProt P13661). The assay is classed as biochemical, E. coli 1527E. Also noted: the beta-lactamase has to be extracted from the cells for the purpose of the present invention; made in house; host or cells: E. coli 1527E according to the earlier reading (crude cell extract).
The target in assay [14] is PSE-1 (Pseudomonas aeruginosa, UniProt Q03170). It counts as biochemical, Ps.aerug. 1937E. Further details: Normally, therefore, the beta-lactamase has to be extracted from the cells for the purpose of the present invention; endogenous in cells.
For assay [15], the target named is T2, Chromosomal, induced beta-lactamase enzyme (Pseudomonas aeruginosa, UniProt P24735).
T2 construct: Normally, therefore, the beta-lactamase has to be extracted from the cells for the purpose of the present invention; endogenous in cells; host or cells: Pseudomonas aeruginosa 1937E grown with ampicillin
The assay is classed as biochemical, Ps.aerug. 1937E + ampicillin.

The test system of assay [16] is PSE-3. The assay is classed as biochemical, Ps.aerug. 1920E.
The target of assay [17] is OXA-2 (Escherichia coli, UniProt P0A1V9). It counts as biochemical, E. coli R46. Further details: the beta-lactamase has to be extracted from the cells for the purpose of the present invention; made in house; host or cells: E. coli carrying R46 according to the earlier reading (crude cell extract).

For `CCN1CCN(C(=O)N[C@@H](C(=O)N[C@@H]2C(=O)N3C(C(=O)O)=C(CSc4nnnn4C)CS[C@H]23)c2ccc(O)cc2)C(=O)C1=O` [Cefopera-zone, cefoperazone], the RSAI in assay [1] is given as 10; in assay [2], 1.9; in assay [3], 2; in assay [4], 0.48; in assay [5] it was 5; in [6], 2.2. The RSAI in assay [7] was determined as 8; in assay [8], 4.5; in assay [9], 0.006; in assay [10], 0.2; in assay [11], 1.3; in [12], 0.014. The RSAI is 4.5 in [13]; 0.019 in assay [14]; 0.5 in [15]; 0.07 in assay [16]; 2 in [17].

Consider `CO/N=C(\C(=O)N[C@@H]1C(=O)N2C(C(=O)O)=C(COC(N)=O)CS[C@H]12)c1ccco1` [Cefuroxime], for which the RSAI in [1] came to 40; in assay [2], 0.002; in [3], 0.003; in assay [4] it was 1.7; in assay [5], 14; in assay [6], 12. Moreover, the RSAI in assay [7] amounted to 50; in [8], 20; in assay [9] it was 2.3; in assay [10], 16; in [11], 0.0002; in assay [12] it was 34. The RSAI in [13] is 10; in assay [14], 50; in assay [15], 0.0001; in assay [16], 12; in assay [17] it was 3.6.

Consider `CC1(C)S[C@@H]2[C@H](NC(=O)[C@H](NC(=O)N3CCN(S(C)(=O)=O)C3=O)c3ccccc3)C(=O)N2[C@H]1C(=O)O` [Mezlo-cillin, Mezlocillin], for which the RSAI stood at 6.3 in [1]; 0.3 in [2]; 19.2 in assay [3]; 4.75 in [4]; 16.4 in [5]; 5.5 in [6]. Moreover, the RSAI is listed as 3.6 in [7]; 3 in assay [8]; 1.3 in assay [9]; 0.9 in [10]; 0.4 in assay [11]; 0.9 in assay [12]. For the same molecule, the RSAI is 1.9 in assay [13]; 1.2 in [14]; 0.26 in assay [15]; 0.8 in assay [16]; 19.4 in assay [17].

Regarding `CC1(C)S[C@@H]2[C@H](NC(=O)[C@H](NC(=O)N3CCNC3=O)c3ccccc3)C(=O)N2[C@H]1C(=O)O` [Azlo-cillin, Azlocillin], the RSAI in [1] is reported as 1.1; in [2], 0.02; in assay [3], 9; in [4] it was 2.64; in [5], 3; in assay [6], 1.9. The RSAI in assay [7] came to 1; in assay [8] it was 1.6; in [9] it was 1.1; in assay [10], 0.42; in assay [11] it was 0.05; in assay [12], 0.36. Besides, the RSAI in assay [13] is reported as 1.4; in [14] it was 0.23; in assay [15], 0.05; in assay [16] it was 0.54; in [17], 19.

Take `CO/N=C(\C(=O)N[C@@H]1C(=O)N2C(C(=O)O)=C(CSc3nc(=O)c(=O)[nH]n3C)CS[C@H]12)c1csc(N)n1` [RO-13 9904]: the RSAI in [1] is 600; in assay [2], 0.01; in assay [3] it was 3; in assay [4], 0.76; in [5] it was 74; in assay [6], 116. The RSAI in assay [7] is recorded as 400; in assay [8] it was 160; in assay [9], 4; in assay [10], 14; in assay [11], 0.0003*; in assay [12], 42. Moreover, the RSAI came to 0.9 in [13]; 14 in assay [14]; 38 in assay [15]; 36 in assay [16]; 10 in assay [17].

In the case of `CC(C)(O/N=C(\C(=O)N[C@@H]1C(=O)N2C(C(=O)[O-])=C(C[n+]3ccccc3)CS[C@H]12)c1csc(N)n1)C(=O)O` [Ceftazidime (GR 20,263), Ceftazidime], the RSAI in assay [1] is given as 1500; in assay [2], 0.2*; in [3] it was above 400; in [4], above 400; in assay [6], 1420; in assay [7], above 400. Also, the RSAI in assay [8] was 1140; in assay [9] it was 880; in assay [10], 10; in assay [11], 0.1*; in assay [12] it was 420; in [13] it was above 2000. The RSAI in assay [14] is on record as 600; in assay [15], 0.46*; in assay [16], 144; in [17] it was 900.

As for `O=C(Cc1cccs1)N[C@@H]1C(=O)N2C(C(=O)[O-])=C(C[n+]3ccccc3)CS[C@H]12` [Cephalo-ridine, cephaloridine], the RSAI in assay [1] is recorded as 20; in assay [2], 2*; in [3] it was 4.4; in assay [4], 22; in [5] it was 30; in assay [6], 19.2. For the same molecule, the RSAI in assay [7] was 40; in assay [8], 30; in [9] it was 5.4; in assay [10] it was 6; in assay [11], 16; in assay [12], 3.5. Further, the RSAI in assay [13] is on record as 60; in assay [14] it was 6; in assay [16] it was 2.2; in assay [17], 4.
